Test results from paper PMC8234218, “In Vitro and In Vivo Efficacies of the Linear and the Cyclic Version of an All-D-Enantiomeric Peptide Developed for the Treatment of Alzheimer’s Disease” (International Journal of Molecular Sciences, 2021).
Read-outs that look alike come from different tables or passages of the source. Where a SMILES comes first, the peptide text is derived from it. [ ]: non-standard residue; d: D form.

Legend:
Aβ(1-42) = target: T1, Aβ(1-42) (Homo sapiens, UniProt P05067); assay: SPR, Aβ(1-42) immobilized, D-peptide as analyte; assay type: binding; details: SPR Biacore T200, Aβ(1-42) immobilized on CM-5 chip by amine coupling, D-peptide analyte 0.625-20 µM, multicycle, 10 mM HEPES + 50 mM NaCl pH 7.4, 25 °C, steady-state Langmuir 1:1 fit (Fig. 1a)
T1 construct: Synthetic Aβ(1-42) and (Gln^22, Asn^23)-Amyloid β-Protein (1-40) (D/I Aβ) with >95% purity were purchased; purchased Bachem (Bubendorf, Switzerland); host or cells: chemical synthesis
T1 sequence (P05067 672-713): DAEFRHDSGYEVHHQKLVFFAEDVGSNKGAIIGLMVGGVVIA
Experimental: The dissociation constant (KD) of RD2D3 and cRD2D3 binding to Aβ(1-42) and D/I Aβ was determined by SPR spectroscopy using a Biacore T200 instrument (Biacore, GE Healthcare, Uppsala, Sweden). Aβ(1-42) or D/I Aβ was used as the ligand, while RD2D3 and cRD2D3 were used as the analyte or vice versa.
By using Aβ(1-42) or D/I Aβ as a ligand, it was immobilized onto a series S CM-5 sensor chip (GE Healthcare, Uppsala, Sweden) by amine coupling. In short, the flow cells were activated by a mixture of 50 mM N-hydroxysuccinimide (NHS) and 16.1 mM N-Ethyl-N’-(dimethylaminopropyl)carbodiimide (EDC) (XanTec, Düsseldorf, Germany) for 7 min. Aβ(1-42) or D/I Aβ were dissolved to a final concentration of 50 µg/mL in 10 mM sodium acetate pH 5 (AppliChem, Darmstadt, Germany) and injected over one of the activated flow cells to a final signal of 1700 RU. After the immobilization, the ligand and reference flow cells were quenched by injecting 1 M ethanolamine pH 8.5 (XanTec, Düsseldorf, Germany) for 7 min. […] The peptides were diluted in the running buffer to the following concentrations: 20 µM, 10 µM, 5 µM, 2.5 µM, 1.25 µM and 0.625 µM. All samples were injected over the flow cells for 180 s, followed by a dissociation step of 600 s with running buffer. Regeneration of the sensor chip was accomplished by a 45 s injection of 2 M of guanidinium hydrochloride (AppliChem, Darmstadt, Germany). […]

[1] = Proteolytic stability in simulated gastric fluid (SGF); assay type: in vitro ADME
Experimental: (§1) Both compounds have already been extensively studied with respect to their in vivo pharmacokinetic profiles. Here, we performed some additional test to investigate the proteolytic stability of the compounds in simulated gastric (SGF) and intestinal fluid (SIF) and human plasma and human liver microsomes. The experiments were performed as described previously. According to the guidelines of the European Pharmacopoeia 7.0, SGF and SIF were prepared. Plasma was purchased from Biotrend with K3-EDTA as an anticoagulant (Biotrend, Köln, Germany). Human liver microsomes were pooled from different donors and purchased from Sekisui XenoTech (Kansas City, KS, USA). In order to determine whether the compounds RD2D3 and cRD2D3 are stable or would be metabolized, 150 µM of each compound was incubated in triplicate for defined time points slightly shaking at 37 °C in the media described above (SGF and SIF: 4 and 8 h, plasma: 8, 24 and 48 h and microsomes: 8 and 24 h). Incubation was stopped by precipitating the proteins. For this, 3% trichloroacetic acid (w/v) was added to the respective sample under vortexing followed by a centrifugation step (14,000× g at 4 °C for 5 min). For analysis, supernatants containing the compounds were collected. The precipitated media without compound was used as a control and as reference for the quantification served each medium with compound where the reaction was stopped immediately by precipitating the proteins. All samples were analyzed by RP-HPLC as previously described.

[2] = Proteolytic stability in human liver microsomes; assay type: in vitro ADME
Experimental: as §1

[3] = cited from earlier work
From the text: Our society is aging and, with it, the number of diseases of old age, especially dementias, are increasing. Alzheimer’s disease (AD) is a devastating neurodegenerative disorder and the most common form of dementia worldwide. Its clinical symptoms are considered to be disturbances of memory, language, spatial and temporal orientation and cognitive decline. The pathological hallmarks of the disease are characterized by neurodegeneration, intracellular depositions of neurofibrillary tangles and extracellular accumulations of amyloid-β (Aβ) plaques.

Aβ(1-42)-oligomers = target: T2, Aβ(1-42)-oligomers (Homo sapiens, UniProt P05067); assay: QIAD assay, Aβ(1-42) oligomer elimination; assay type: biochemical; details: 80 µM Aβ(1-42) preincubated 2 h, 20 µM D-peptide, 30 min coincubation, density gradient fractions 4-6, RP-HPLC UV 214 nm, N = 2-5
T2 construct: Synthetic Aβ(1-42) and (Gln^22, Asn^23)-Amyloid β-Protein (1-40) (D/I Aβ) with >95% purity were purchased; purchased Bachem (Bubendorf, Switzerland); host or cells: chemical synthesis
T2 sequence (P05067 672-713): as above
Experimental: According to Brener et al., a QIAD assay was performed in order to evaluate the Aβ(1-42) or D/I Aβ oligomer elimination efficacies of RD2D3 and cRD2D3 [18]. In short, 80 µM lyophilized Aβ(1-42) or 40 µM D/I Aβ was preincubated for 2 h or 15 min, respectively, to enrich Aβ-oligomers. Afterwards, either 20 µM RD2D3 or cRD2D3 for Aβ(1-42) or 10 µM RD2D3 or cRD2D3 for D/I Aβ were added to the preincubated solution and coincubated for additional 30 min. Subsequently, the samples were loaded on the top of a density gradient (5–50% (w/v) iodixanol (OptiPrep, Sigma-Aldrich, Darmstadt, Germany)) followed by an ultracentrifugation step (3 h at 4 °C and 259000× g (Optima TL-100, Beckman Coulter, Brea, CA, USA)). Following the ultracentrifugation, 14 fractions (140 µL each) were harvested by upward displacement. Fraction 15 contains the dissolved pellet in 6 M guanidine hydrochloride solution. Top fractions 1–2 contained Aβ-monomers, fractions 4–6 contained the Aβ-oligomers, which are of special interest, and the bottom fractions 11–14 contained high molecular weight (co-)precipitates or aggregated Aβ. Aβ(1-42) or D/I Aβ concentrations of each fraction were determined via analytical RP-HPLC and UV absorbance detection at 214 nm.

SMILES	Kd (Aβ(1-42))	remaining at 4 h, 150 µM ([1]; simulated gastric fluid)	remaining at 8 h, 150 µM ([1]; simulated gastric fluid)	remaining at 8 h, 150 µM ([2]; human, microsomes)	remaining at 24 h, 150 µM ([2]; human, microsomes)	Terminal half-life (in plasma) ([3]; mouse, in vivo)	Elimination of toxic Aβ(1-42)-oligomers (QIAD) (Aβ(1-42)-oligomers)	remaining at 4 h, 150 µM ([1]; simulated gastric fluid (SGF), simulated gastric fluid (Eur. Pharmacopoeia 7.0), 150 µM, 37 °C, 4 h, TCA precipitation, RP-HPLC, referenced to immediately stopped sample, mean of three independent experiments, read-out: Stability in SGF, 4 h)	remaining at 8 h, 150 µM ([1]; simulated gastric fluid (SGF), simulated gastric fluid (Eur. Pharmacopoeia 7.0), 150 µM, 37 °C, 8 h, TCA precipitation, RP-HPLC, referenced to immediately stopped sample, mean of three independent experiments, read-out: Stability in SGF, 8 h)	remaining at 8 h, 150 µM ([2]; pooled human liver microsomes, 150 µM, 37 °C, 8 h, TCA precipitation, RP-HPLC, mean of three independent experiments, read-out: Stability in human liver microsomes, 8 h)	remaining at 24 h, 150 µM ([2]; pooled human liver microsomes, 150 µM, 37 °C, 24 h, TCA precipitation, RP-HPLC, mean of three independent experiments, read-out: Stability in human liver microsomes, 24 h)	Brain concentrations relative to RD2D3 ([3]; C57BL/6 mice, i.v. and i.p. administration)	Terminal half-life (in plasma) ([3]; C57Bl/6 wild type mice, after i.v. and i.p. administration, ref 17 (b3))	Oral bioavailability [3]
CC(C)C[C@@H](NC(=O)[C@@H](CCCNC(=N)N)NC(=O)[C@H](NC(=O)[C@@H](CCCNC(=N)N)NC(=O)[C@H]1CCCN1C(=O)[C@@H](CCCNC(=N)N)NC(=O)[C@@H](CCCNC(=N)N)NC(=O)[C@@H](CCCNC(=N)N)NC(=O)[C@@H](CCCNC(=N)N)NC(=O)[C@@H](CCCNC(=N)N)NC(=O)[C@@H](CCCNC(=N)N)NC(=O)[C@@H](CC(N)=O)NC(=O)[C@@H](Cc1c[nH]cn1)NC(=O)[C@H](NC(=O)[C@@H](Cc1c[nH]cn1)NC(=O)[C@@H](CC(C)C)NC(=O)[C@H](NC(=O)[C@H]1CCCN1)[C@H](C)O)[C@H](C)O)[C@H](C)O)C(=O)N[C@H](Cc1c[nH]cn1)C(=O)N[C@@H](C(=O)N[C@H](Cc1c[nH]cn1)C(=O)N[C@H](CCCNC(=N)N)C(=O)N[C@H](CC(N)=O)C(=O)N[C@H](CCCNC(=N)N)C(N)=O)[C@H](C)O [RD2D3] (H-[dP][dT][dL][dH][dT][dH][dN][dR][dR][dR][dR][dR][dR][dP][dR][dT][dR][dL][dH][dT][dH][dR][dN][dR]-NH2)	7.01 ± 0.31 µM	100%	100%	81.9%	78.2%	2.3 h	–	–	–	–	–	–	–	–
CC(C)C[C@H]1NC(=O)[C@@H](CCCNC(=N)N)NC(=O)[C@@H]([C@H](C)O)NC(=O)[C@@H](CCCNC(=N)N)NC(=O)[C@H]2CCCN2C(=O)[C@@H](CCCNC(=N)N)NC(=O)[C@@H](CCCNC(=N)N)NC(=O)[C@@H](CCCNC(=N)N)NC(=O)[C@@H](CCCNC(=N)N)NC(=O)[C@@H](CCCNC(=N)N)NC(=O)[C@@H](CCCNC(=N)N)NC(=O)[C@@H](CC(N)=O)NC(=O)[C@@H](Cc2c[nH]cn2)NC(=O)[C@@H]([C@H](C)O)NC(=O)[C@@H](Cc2c[nH]cn2)NC(=O)[C@@H](CC(C)C)NC(=O)[C@@H]([C@H](C)O)NC(=O)[C@H]2CCCN2C(=O)[C@@H](CCCNC(=N)N)NC(=O)[C@@H](CC(N)=O)NC(=O)[C@@H](CCCNC(=N)N)NC(=O)[C@@H](Cc2c[nH]cn2)NC(=O)[C@@H]([C@H](C)O)NC(=O)[C@@H](Cc2c[nH]cn2)NC1=O [cRD2D3] (cyclo([dH][dN][dR][dR][dR][dR][dR][dR][dP][dR][dT][dR][dL][dH][dT][dH][dR][dN][dR][dP][dT][dL][dH][dT]))	10.4 ± 0.61 µM	–	–	–	–	–	80%	99.5%	99.7%	89.2%	73.6%	four to five times higher	58 h	high oral bioavailability
